What was measured:
Assay type in all cases: biochemical
Settings in all cases: pH 8
FBS-AChE, soluble = molecular target: T1, FBS-AChE, soluble (Bos taurus, UniProt P23795)
T1 sequence (P23795 31-613): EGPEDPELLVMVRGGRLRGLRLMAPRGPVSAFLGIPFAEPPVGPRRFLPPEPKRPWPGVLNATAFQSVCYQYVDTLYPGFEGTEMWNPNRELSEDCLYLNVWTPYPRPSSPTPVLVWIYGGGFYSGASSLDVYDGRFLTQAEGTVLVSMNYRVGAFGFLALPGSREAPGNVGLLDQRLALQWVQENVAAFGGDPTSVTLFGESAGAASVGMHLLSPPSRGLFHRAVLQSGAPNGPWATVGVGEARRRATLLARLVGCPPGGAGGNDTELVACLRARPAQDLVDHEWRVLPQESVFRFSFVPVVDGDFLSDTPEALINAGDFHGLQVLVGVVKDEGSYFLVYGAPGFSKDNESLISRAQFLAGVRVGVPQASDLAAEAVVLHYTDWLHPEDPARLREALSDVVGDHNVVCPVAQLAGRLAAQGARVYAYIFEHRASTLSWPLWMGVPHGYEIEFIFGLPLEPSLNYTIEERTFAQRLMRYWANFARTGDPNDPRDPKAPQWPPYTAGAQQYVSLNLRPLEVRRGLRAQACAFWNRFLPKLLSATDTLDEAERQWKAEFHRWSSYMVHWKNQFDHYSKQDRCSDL

[1] = molecular target: T2, FBS-AChE, immobilized (polyurethane coupled) (Bos taurus, UniProt P23795)
T2 sequence (P23795 31-613): T1 sequence (P23795 31-613)

Equine-BChE, soluble = Equine-BChE, soluble (Equus caballus, UniProt P81908)
Chain of Equine-BChE, soluble (P81908 whole entry): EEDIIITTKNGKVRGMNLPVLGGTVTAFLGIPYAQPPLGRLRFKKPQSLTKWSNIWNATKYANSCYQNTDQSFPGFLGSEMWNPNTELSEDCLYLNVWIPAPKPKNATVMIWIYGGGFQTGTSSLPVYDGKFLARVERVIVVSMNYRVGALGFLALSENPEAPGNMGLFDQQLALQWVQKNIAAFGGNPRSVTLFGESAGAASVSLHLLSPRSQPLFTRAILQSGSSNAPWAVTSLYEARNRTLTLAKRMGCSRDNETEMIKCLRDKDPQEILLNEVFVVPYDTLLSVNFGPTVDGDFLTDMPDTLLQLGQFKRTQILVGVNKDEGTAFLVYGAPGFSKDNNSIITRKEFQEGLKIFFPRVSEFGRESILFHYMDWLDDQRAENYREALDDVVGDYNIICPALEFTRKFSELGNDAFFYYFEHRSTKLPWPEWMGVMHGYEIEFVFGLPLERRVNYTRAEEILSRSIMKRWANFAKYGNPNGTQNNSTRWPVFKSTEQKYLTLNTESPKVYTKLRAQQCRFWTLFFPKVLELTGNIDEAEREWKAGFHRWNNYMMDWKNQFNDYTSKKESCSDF

[2] = molecular target: Equine-BChE, immobilized (polyurethane coupled) (Equus caballus, UniProt P81908)
Chain of Equine-BChE, immobilized (polyurethane coupled) (P81908 whole entry): as above

Row | Compound | Kcat (FBS-AChE, soluble) [s⁻¹] | Km (FBS-AChE, soluble) [µM] | Kss (FBS-AChE, soluble) [mM] | Kcat [1] [s⁻¹] | Km [1] [µM] | Kss [1] [mM] | B (Equine-BChE, soluble) | Kcat (Equine-BChE, soluble) [s⁻¹] | Km (Equine-BChE, soluble) [µM] | Kss (Equine-BChE, soluble) [mM] | Kcat [2] [s⁻¹] | Km [2] [µM] | Kss [2] [mM]
1 | CC(=O)SCC[N+](C)(C)C.[I-] [acetylthiocholine, Acetylthiocholine iodide] | 4670 | 119 | 18 | 983 | 1090 | 22 | – | – | – | – | – | – | –
2 | CCCC(=O)SCC[N+](C)(C)C.[I-] [butyrylthiocholine, S-butyrylthiocholine iodide] | – | – | – | – | – | – | 1.8 | 517 | 127 | 1.5 | 300 | 1200 | 16

— patent EP1175509B1 (priority 1999, dated 2000)
